Results taken from patent US11878961B2, “Next generation FKBP52 targeting drugs for the treatment of prostate and breast cancer” (Board of Regents, The University of Texas System, priority 2020, dated 2024).
Entries after “also recorded” stand apart in the source; their conditions may differ.

What was measured:
Format in all cases: cell-based
[1] = system: AR nuclear translocation; experiment: AR nuclear translocation by fluorescence microscopy in 22Rv1 cells; details: 22Rv1 prostate cancer cells, 75 μM, in the presence of hormone
Protocol: FIG. 24 depicts that PC257 Blocks Androgen-Dependent AR Nuclear Translocation in accordance with an illustrative embodiment.
Referring to FIG. 24, 22Rv1 prostate cancer cells were treated with or without 75 μM in the presence of hormone and AR and FKBP52 cellular localization was assessed by fluorescence microscopy.

[2] = system: FKBP52-regulated AR activity; experiment: DHT-induced AR-dependent luciferase reporter with or without exogenous FKBP52 in fkbp52-deficient cells; details: presence or absence of exogenous FKBP52; fkbp52-deficient 22Rv1, HeLa and mouse embryonic fibroblast cells
Protocol: Referring to FIG. 22, dihydrotestosterone (DHT)-induced, androgen receptor-dependent luciferase reporter gene expression was assessed in the presence of a range of PC257 concentrations in the presence or absence of exogenous FKBP52 expression in fkbp52-deficient 22Rv1, HeLa, and mouse embryonic fibroblast cells. The IC50 values are indicated. […] PC257 is anticipated to target the PPIase pocket, a highly conserved enzymatic pocket among the FKBP family of proteins.

[3] = system: progesterone receptor (PR); experiment: PR-dependent luciferase reporter assay in T47D cells; details: result in words
Protocol: (§1) Referring to FIG. 21, hormone-induced, receptor-dependent luciferase reporter gene expression was assessed in the presence of a range of PC257 concentrations for androgen receptor (AR) and glucocorticoid receptor (GR) in MDAkb2 cells, and for progesterone receptor (PR) and estrogen receptor (ER) in T47D cells. The IC50 values for AR, GR and PR inhibition are shown.

[4] = system: glucocorticoid receptor (GR); experiment: GR-dependent luciferase reporter assay in MDA-kb2 cells (50 nM DEX); details: MDAkb2 cells, result in words
Protocol: (§2) FIGS. 20A-20D depict PC257 (ZINC3424402) which inhibits FKBP52-Specific AR, GR and ER-Mediated Activity in accordance with an illustrative embodiment. (FIG. 20A) An in silico screen lead to 107 lead molecules for functional screening that lead to an initial hit molecule PC257 (ZINC3424402). (FIG. 20B) MDA-kb2 cells expressing a stably AR- and GR-response luciferase reporter was treated with 200 pM DHT with a range of PC257 (ZINC3424402) concentrations (0, 0.01, 0.1, 1, 10, 25, 50, and 100 uM) for 16-18 hours in order to test for AR-dependent activity. The graphs represent an average of 4 independent receptor mediated luciferase receptor experiments. (FIG. 20C) MDA-kb2 cells expressing a stably AR- and GR-responsive luciferase reporter was treated with 50 nM DEX with a range of PC257 (ZINC3424402) concentrations (0, 0.01, 0.1, 1, 10, 25, 50, and 100 uM) for 16-18 hours in order to test for GR-dependent activity. The graphs represent an average of 4 independent receptor mediated luciferase receptor experiments. […]
as §1, with “The IC50 values for AR, GR and PR inhibition are shown.” left out

[5] = system: endogenous AR-dependent gene expression; experiment: Hormone-dependent FKBP51 and/or PSA protein levels by Western blot and densitometry; details: range of PC257 concentrations, normalized to GAPDH
Protocol: Referring to FIG. 23, hormone-dependent FKBP51 and/or PSA protein levels were assessed by Western blot and densitometry in the indicated cell lines in the presence of a range of PC257 concentrations. GAPDH was used as a loading control and the densitometry data were normalized to GAPDH.

[6] = system: estrogen receptor (ER); experiment: ER-regulated luciferase reporter assay in T47D-KBluc cells (10 pM E2); details: result in words
Protocol: as §2
as §1, with “The IC50 values for AR, GR and PR inhibition are shown.” left out

[7] = system: androgen receptor (AR); experiment: AR-mediated luciferase reporter assay in MDA-kb2 cells (200 pM DHT)
Protocol: FIGS. 19A-19B depict identification of novel FKBP52-specific hit compounds in accordance with an illustrative embodiment. Structure-based drug design methodology and in silico library screening was used to identify 107 molecules targeting the FKBP52 PPIase pocket. Molecules were assessed for the ability to inhibit AR-mediated luciferase expression at a single high concentration (25 μM) in MDA-kb2 cells. […] MDA-kb2 cells were treated with 200 pM DHT with a range of derivative concentrations. Molecules in the low μM range will be tested in GR-, PR- and ER-Mediated luciferase assays in order to assess GR-dependent activity, PR-dependent activity and to test the effects of ER-regulated activity. A detailed evaluation of all candidate molecules will be tested in multiple cellular and animal models of prostate cancer.
FIGS. 20A-20D depict PC257 (ZINC3424402) which inhibits FKBP52-Specific AR, GR and ER-Mediated Activity in accordance with an illustrative embodiment. […]
as §1, with “The IC50 values for AR, GR and PR inhibition are shown.” left out

IC50 ([7]; MDA-kb2 cell reporter assay, 200 pM DHT, full dose response, read-out: IC50, inhibition of AR activity): 2000 nM
SMILES: Cc1cc(C(=O)COC(=O)Cc2n[nH]c(=O)c3ccccc23)c(C)n1C[C@H]1COc2ccccc2O1 [PC257, [2-[1-[[(3S)-2,3-Dihydro-1,4-benzodioxin-3-yl]methyl]-2,5-dimethylpyrrol-3-yl]-2-oxoethyl] 2-(4-oxo-3H-phthalazin-1-yl)acetate]
AR nuclear translocation [1]: significantly inhibits AR nuclear translocation
preference for FKBP52-regulated AR activity [2]: preferentially targets FKBP52-regulated AR activity with increased potency
inhibition of PR activity [3]: specifically abrogates
inhibition of GR activity [4]: specifically abrogates
endogenous AR-dependent gene expression (FKBP51/PSA protein) [5]: abrogates endogenous AR-dependent gene expression
inhibitory activity on ER [6]: no inhibitory activity
inhibition of AR activity ([7]; MDA-kb2 cells, luciferase reporter, result in words): inhibition of AR activity in the low micromolar range; also recorded: specifically abrogates
